The source of these data is patent publication US20230141965A1, “TREATMENT OF INFECTIOUS DISEASES” (Durect Corporation, priority 2020, published 2023).

The subject of one test is mice. Briefly: Acute organ injury in mice given acetaminophen (APAP) injection. The test is classed as in vivo. The following applies: for kidney, lung, and liver tissues: mice, 25 mg/kg with APAP injection (600 mg/kg APAP for 24hr), FIG. 2. The method, then: Normal: normal mice without treatment; Control: mice with 10% glucose and acetaminophen (APAP) injection (600 mg/kg APAP for 24hr); PG: mice with vehicle and APAP injection (600 mg/kg APAP for 24hr); PG+25HC3S: mice with 25HC3S (25 mg/kg) and APAP injection.

The test system of another test is C57BL/6J mice. The test can be described thus: Acute organ injury in mice challenged with lipopolysaccharide (LPS). Conditions: for health of kidney, lung, and liver tissues (sections stained with hematoxylin and eosin, light microscope): C57BL/6J mice, 50 mg/kg i.p. two hours before i.v. LPS 5 mg/kg, tissues collected at day 3, FIG. 1. The test is classed as in vivo. The method, then: C57BL/6J mice, 21 week old, received an i.p. injection of 25HC3S sodium salt (50 mg/kg) or vehicle. Two hours later, mice were challenged with an intravenous injection of lipopolysaccharide (LPS) at 5 mg/kg. For vehicle-treated mice, the tissues, liver, lung, and kidney, were collected right before when animals met all criteria to be sacrificed. For mice treated with 25HC3S sodium salt, tissues were collected at the day 3, when 80% of vehicle-treated mice died. The tissue sections were stained with hematoxylin and eosin, examined under light microscope with magnification x 100.

With `C[C@H](CCCC(C)(C)O)[C@H]1CC[C@H]2[C@@H]3CC=C4C[C@@H](OS(=O)(=O)[O-])CC[C@]4(C)[C@H]3CC[C@]12C.[Na+]` [25HC3S, 5-cholesten-3, 25-diol, 3-sulfate], in the test with mice (FIG. 2 legend, 600 mg/kg APAP), the “protection of mice from acetaminophen” value is reported as “protected mice from acetaminophen”. In addition, in the test on mice, the “kidney, lung, and liver tissues” value is “improved kidney, lung, and liver tissues”. Besides, the “health of kidney, lung, and liver tissues (sections stained with hematoxylin and eosin, light microscope)” value in the test with C57BL/6J mice (listed as 25HCS) was “improved kidney, lung, and liver tissues”. In addition, the “protection of mice from lipopolysaccharide (LPS)” value in the test with C57BL/6J mice (FIG. 1 legend, LPS 5 mg/kg i.v.) is given as “protected mice from lipopolysaccharide (LPS)”.
As for `C[C@H](CCCC(C)(C)O)[C@H]1CC[C@H]2[C@@H]3CC=C4CC(OS(=O)(=O)[O-])CC[C@]4(C)[C@H]3CC[C@]12C.[Na+]` (stereo partly drawn) [25HC3S sodium salt, 5-cholesten-3, 25-diol, 3-sulfate], the “kidney, lung, and liver tissues” value in the test on mice was “improved kidney, lung, and liver tissues”. Further, the “health of kidney, lung, and liver tissues (sections stained with hematoxylin and eosin, light microscope)” value in the test on C57BL/6J mice was “improved the health of kidney, lung, and liver tissues”.
